Data reported in US20030229072A1, “Cyclic and acyclic amidines and pharmaceutical compositions containing them for use as progesterone receptor binning agents” (priority 2000, published 2003).

Question: For Cc1cc([N+](=O)[O-])ccc1/N=C1/C2CC3CC(C2)CC(C3)N1CC(C)C [Example 54, N-(4-Isobutyl-4-azatricyclo[4.3.1.1^3,8]undec-5-ylidene)-2-methyl-4-nitroaniline], which melting point is on record?
Answer: Its melting point is 101 to 102 °C.
